Assays:
[1] = system: OVCAR-4; type: cell-based; details: OVCAR-4, Ovarian; for CC50: read-out: 50% lethal concentration (LC50)
[2] = system: NCI/ADR-RES; details: for GI50 / Total growth inhibition (TGI): Ovarian
[3] = system: UACC-62; details: UACC-62, Melanoma; for CC50: read-out: 50% lethal concentration (LC50)
[4] = system: COLO 205; details: COLO 205, Colon
[5] = DPPH radical scavenging assay; details: 25 µM test compound, 0.1 mM DPPH, acetonitrile, 30 min
In short: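 Compounds at 25 µM in acetonitrile mixed 1:2 with 0.1 mM DPPH in acetonitrile, kept 30 min in the dark at room temperature. Absorbance read at 517 nm; % scavenging = (Ac − As)/Ac × 100, Ac being DPPH blank. Ascorbic acid positive control.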

[6] = system: DU-145; details: DU-145, Prostate; for CC50: read-out: 50% lethal concentration (LC50)
[7] = system: M14; type: cell-based; details: M14, Melanoma
[8] = system: SF-539; details: SF-539, CNS; for CC50: read-out: 50% lethal concentration (LC50)
[9] = system: SK-MEL-28; details: SK-MEL-28, Melanoma; for CC50: read-out: 50% lethal concentration (LC50)
[10] = system: U251; details: U251, CNS
[11] = system: SK-OV-3; details: SK-OV-3, Ovarian; for CC50: read-out: 50% lethal concentration (LC50)
[12] = system: HCT-15; details: HCT-15, Colon; for CC50: read-out: 50% lethal concentration (LC50)
[13] = system: NCI-H23; details: for Total growth inhibition (TGI) / CC50: NCI-H23, Non-Small Cell Lung; for GI50: NCI-H23, Non-Small-Cell Lung; for CC50: read-out: 50% lethal concentration (LC50)
[14] = system: MALME-3M; details: Melanoma
[15] = system: K-562; details: K-562, Leukemia; for CC50: read-out: 50% lethal concentration (LC50)
[16] = system: MDA-MB-468; details: MDA-MB-468, Breast; for CC50: read-out: 50% lethal concentration (LC50)
[17] = system: OVCAR-3; details: OVCAR-3, Ovarian; for CC50: read-out: 50% lethal concentration (LC50)
[18] = system: OVCAR-5; details: OVCAR-5, Ovarian; for CC50: read-out: 50% lethal concentration (LC50)
[19] = system: RPMI-8226; details: RPMI-8226, Leukemia; for CC50: read-out: 50% lethal concentration (LC50)
[20] = system: HCT-116; type: cell-based; details: HCT-116, Colon
[21] = system: PC-3; details: PC-3, Prostate; for CC50: read-out: 50% lethal concentration (LC50)
[22] = system: UACC-257; details: UACC-257, Melanoma
[23] = system: HT29; details: HT29, Colon; for CC50: read-out: 50% lethal concentration (LC50)
[24] = system: OVCAR-8; details: OVCAR-8, Ovarian; for CC50: read-out: 50% lethal concentration (LC50)
[25] = system: MOLT-4; details: MOLT-4, Leukemia; for CC50: read-out: 50% lethal concentration (LC50)
[26] = system: LOX IMVI; details: for GI50 / Total growth inhibition (TGI): Melanoma; for CC50: read-out: 50% lethal concentration (LC50), Melanoma
[27] = system: A549/ATCC; details: for Total growth inhibition (TGI): Non-Small Cell Lung; for GI50: Non-Small-Cell Lung; for CC50: read-out: 50% lethal concentration (LC50), Non-Small Cell Lung
[28] = system: NCI-H522; details: for Total growth inhibition (TGI) / CC50: NCI-H522, Non-Small Cell Lung; for GI50: NCI-H522, Non-Small-Cell Lung; for CC50: read-out: 50% lethal concentration (LC50)

Molecule `C=C1CCC2C3(C)COC(c4cn(-c5ccccc5)nc4-c4ccc(Br)cc4)OC3CCC2(C)C1CC=C1C(=O)OCC1O` (stereo not shown) [1h] has a GI50 [1] of 1.89 µM, a Total growth inhibition (TGI) [1] of 4.27 µM and a CC50 [1] of over 100 µM. The GI50 [2] was 1.83 µM, the Total growth inhibition (TGI) [2] was 4.19 µM and the GI50 [3] was 1.58 µM. The Total growth inhibition (TGI) [3] was 3.13 µM, the CC50 [3] was 6.2 µM and the GI50 [4] was 1.7 µM. The Total growth inhibition (TGI) [4] was 3.51 µM, the “% DPPH radical scavenging activity” value [5] was 57.51% and the GI50 [6] was 1.77 µM. For the same molecule, the Total growth inhibition (TGI) [6] was 3.59 µM, the CC50 [6] was 7.28 µM and the GI50 [7] was 1.71 µM. The Total growth inhibition (TGI) [7] was 3.55 µM, the GI50 [8] was 1.76 µM and the Total growth inhibition (TGI) [8] was 3.18 µM. The CC50 [8] was 5.73 µM, the GI50 [9] was 1.73 µM and the Total growth inhibition (TGI) [9] was 3.3 µM. It also gave a CC50 [9] of 6.3 µM, a GI50 [10] of 2.11 µM and a Total growth inhibition (TGI) [10] of 2.89 µM. For the same molecule, the GI50 [11] was 2.03 µM, the Total growth inhibition (TGI) [11] was 8.27 µM and the CC50 [11] was over 100 µM. For the same molecule, the GI50 [12] was 1.6 µM, the Total growth inhibition (TGI) [12] was 3.3 µM and the CC50 [12] was 6.83 µM. It also gave a Total growth inhibition (TGI) [13] of 3.62 µM, a GI50 [13] of 1.71 µM and a CC50 [13] of 7.67 µM. It also gave a GI50 [14] of 1.6 µM, a Total growth inhibition (TGI) [14] of 3.11 µM and a GI50 [15] of 2.07 µM. For the same molecule, the CC50 [15] was over 100 µM, the GI50 [16] was 1.93 µM and the Total growth inhibition (TGI) [16] was 3.47 µM. The CC50 [16] was 6.23 µM, the GI50 [17] was 1.52 µM and the Total growth inhibition (TGI) [17] was 3.32 µM. It also gave a CC50 [17] of 7.25 µM, a GI50 [18] of 1.93 µM and a Total growth inhibition (TGI) [18] of 5.08 µM. It also gave a CC50 [18] of over 100 µM, a GI50 [19] of 1.28 µM and a Total growth inhibition (TGI) [19] of over 100 µM. It also gave a CC50 [19] of over 100 µM, a GI50 [20] of 0.94 µM and a Total growth inhibition (TGI) [20] of 2.48 µM. The CC50 ([20]; read-out: 50% lethal concentration (LC50)) was 6.3 µM, the GI50 [21] was 2.03 µM and the CC50 [21] was over 100 µM. For the same molecule, the GI50 [22] was 1.7 µM, the Total growth inhibition (TGI) [22] was 3.35 µM and the GI50 [23] was 2.16 µM. It also gave a Total growth inhibition (TGI) [23] of 6.51 µM, a CC50 [23] of over 100 µM and a GI50 [24] of 1.55 µM. The Total growth inhibition (TGI) [24] was 3.4 µM, the CC50 [24] was 7.45 µM and the GI50 [25] was 0.61 µM. For the same molecule, the CC50 [25] was over 100 µM, the GI50 [26] was 1.55 µM and the Total growth inhibition (TGI) [26] was 2.9 µM. The CC50 [26] was 5.41 µM, the Total growth inhibition (TGI) [27] was 51.6 µM and the GI50 [27] was 3.1 µM. For the same molecule, the CC50 [27] was over 100 µM, the Total growth inhibition (TGI) [28] was 3.37 µM and the GI50 [28] was 1.69 µM. For the same molecule, the CC50 [28] was 6.68 µM.
For `C=C1CCC2C3(C)COC(c4cn(-c5ccccc5)nc4-c4cccc(F)c4)OC3CCC2(C)C1CC=C1C(=O)OCC1O` (stereo not shown) [1c], the GI50 [1] was 1.74 µM, the Total growth inhibition (TGI) [1] was 4.27 µM and the CC50 [1] was over 100 µM. It also gave a GI50 [2] of 1.77 µM, a Total growth inhibition (TGI) [2] of 3.99 µM and a CC50 ([2]; read-out: 50% lethal concentration (LC50), Ovarian) of 8.99 µM. It also gave a GI50 [3] of 1.65 µM, a Total growth inhibition (TGI) [3] of 3.21 µM and a CC50 [3] of 6.22 µM. The GI50 [4] was 2.06 µM, the Total growth inhibition (TGI) [4] was 4.65 µM and the “% DPPH radical scavenging activity” value [5] was 58.33%. It also gave a GI50 [6] of 1.97 µM, a Total growth inhibition (TGI) [6] of 4.25 µM and a CC50 [6] of 9.15 µM. It also gave a GI50 [7] of 1.75 µM, a Total growth inhibition (TGI) [7] of 3.59 µM and a GI50 [8] of 1.77 µM. For the same molecule, the Total growth inhibition (TGI) [8] was 3.17 µM, the CC50 [8] was 5.68 µM and the GI50 [9] was 1.77 µM. The Total growth inhibition (TGI) [9] was 3.35 µM, the CC50 [9] was 6.36 µM and the GI50 [10] was 1.81 µM. For the same molecule, the Total growth inhibition (TGI) [10] was 5.61 µM, the GI50 [11] was 2.7 µM and the Total growth inhibition (TGI) [11] was 6.09 µM. The CC50 [11] was over 100 µM, the GI50 [12] was 1.57 µM and the Total growth inhibition (TGI) [12] was 3.18 µM. For the same molecule, the CC50 [12] was 6.45 µM, the Total growth inhibition (TGI) [13] was 3.57 µM and the GI50 [13] was 1.79 µM. For the same molecule, the CC50 [13] was 7.09 µM, the GI50 [14] was 1.87 µM and the Total growth inhibition (TGI) [14] was 3.5 µM. The GI50 [15] was 2.14 µM, the Total growth inhibition (TGI) [15] was over 100 µM and the CC50 [15] was over 100 µM. The GI50 [16] was 1.63 µM, the Total growth inhibition (TGI) [16] was 3.13 µM and the CC50 [16] was 6.01 µM. The GI50 [17] was 1.95 µM, the Total growth inhibition (TGI) [17] was 3.68 µM and the CC50 [17] was 6.94 µM. It also gave a GI50 [18] of 1.92 µM, a Total growth inhibition (TGI) [18] of 4.61 µM and a CC50 [18] of 31 µM. It also gave a GI50 [19] of 2.63 µM, a Total growth inhibition (TGI) [19] of over 100 µM and a CC50 [19] of over 100 µM. It also gave a GI50 [20] of 3.48 µM, a Total growth inhibition (TGI) [20] of 1.59 µM and a GI50 [21] of 1.97 µM. The Total growth inhibition (TGI) [21] was 4.56 µM, the CC50 [21] was over 100 µM and the GI50 [22] was 1.93 µM. For the same molecule, the Total growth inhibition (TGI) [22] was 3.87 µM, the GI50 [23] was 1.7 µM and the Total growth inhibition (TGI) [23] was 4.51 µM. It also gave a CC50 [23] of over 100 µM, a GI50 [24] of 1.77 µM and a Total growth inhibition (TGI) [24] of 3.88 µM. For the same molecule, the CC50 [24] was 8.5 µM, the GI50 [25] was 0.69 µM and the CC50 [25] was over 100 µM. For the same molecule, the GI50 [26] was 1.44 µM, the Total growth inhibition (TGI) [26] was 2.75 µM and the CC50 [26] was 5.25 µM. The Total growth inhibition (TGI) [27] was 25.3 µM, the GI50 [27] was 3.88 µM and the CC50 [27] was over 100 µM. It also gave a Total growth inhibition (TGI) [28] of 3.08 µM, a GI50 [28] of 1.52 µM and a CC50 [28] of 6.24 µM.
